In patent publication US10035795B1, “Phenothiazine derivatives having CaM inhibitory activity” (KOREA INSTITUTE OF SCIENCE AND TECHNOLOGY, priority 2017, dated 2018):

Assays:
Format in all cases: cell-based
[1] = test system: U87MG cells; assay: Calcium imaging (Ca2+ imaging): change in the calcium level of the cells, Fura-2 340/380 ratio; settings: 100 μM in HEPES buffer, average 340/380 ratio reactivity for 200 seconds relative to TFP (trifluoperazine) as 100%
Method: Calcium Imaging (Ca^2+ Imaging)
Calcium imaging was conducted as follows in order to measure the change in the calcium level in […] (glioblastoma cells) by TFP (trifluoperazine) and the phenothiazine derivative represented by Chemical Formula 1 according to the present invention. First, after placing a polylysine (PDL)-coated coverslip on a 24-well plate, 2×10^4 U87MG cells detached by treating with trypsin were seeded thereupon. On the next day, the coverslip was incubated at room temperature for 1 hour in a Fura-2 solution (5 μM Fura-2 AM, 1 μM pluronic acid in HEPES buffer, pH 7.4) and washed twice with a HEPES buffer (10 mM HEPES, 150 mM NaCl, 3 mM KCl, 2 mM CaCl2, 1 mM MgCl2, 22 mM sucrose, 10 mM glucose, pH 7.4). The washed coverslip was mounted in a bath adapter (bath adapter) and placed under a calcium imaging microscope (Olympus IX71). After connecting a bath line to the bath adapter, the change in the calcium level of the cells was recorded for 300 seconds (4-second intervals; 340 nm, 380 nm, 340/380 nm ratio) by running a calcium imaging program (Imaging Workbench 6.0, Indec Inc.). After flowing a HEPES buffer for 50 seconds for setting of the baseline, a TFP (trifluoperazine) solution or solution of the phenothiazine derivative represented by Chemical Formula 1 (100 μM in HEPES buffer) were flown as test solutions for 100 seconds and then a HEPES buffer was flown again for 150 seconds. All the test solutions were prepared by diluting a 50 mM stock solution to 100 μM with a HEPES buffer. For analysis of the change of intracellular calcium level by the phenothiazine derivative represented by Chemical Formula 1, data files were read using a calcium imaging analysis program (Clampfit 9.2, Axon Inc.) and only the 340/380 ratio values were taken. The values recorded for the first 50 seconds were set to “0” and graphs were rearranged. Then, the average reactivity to the phenothiazine derivative represented by Chemical Formula 1 for 200 seconds was calculated relative to the average reactivity to TFP (trifluoperazine) for 200 seconds as 100%.

[2] = test system: lung cancer; assay: cell viability assay, colony formation assay and soft agar colony formation assay
Source text: (§1) TFP is a phenothiazine-based compound mainly used as an antipsychotic [see patent document 1]. Antipsychotics are psychiatric drugs primarily used to manage psychosis such as schizophrenia, bipolar disorder, etc. and also to manage non-psychiatric disorder such as sleep. The antipsychotics tend to block receptors in the brain's dopamine pathways but cover a wide range of drug targets. […] Based on this, cell viability assay, matrigel invasion assay, colony formation assay and soft agar colony formation assay were conducted to investigate whether TFP suppresses lung cancer.

[3] = test system: cancer cells; assay: matrigel invasion assay
Source text: as §1

Compound: FC(F)(F)c1ccc2c(c1)N(CCCCN1CCC(N3CCOCC3)CC1)c1ccccc1S2 [Example 41, 4-(1-(4-(2-(trifluoromethyl)-10H-phenothiazine;-10-yl)butyl)piperidin-4-yl)morpholine]
- Reactivity (%) [1]: 120%

Compound: FC(F)(F)c1ccc2c(c1)N(CCCCN1CCC(N3CCCC3)CC1)c1ccccc1S2 [Example 42, 10-(4-(4-(pyrrolidin-1-yl)piperidin-1-yl)butyl)-2-(trifluoromethyl)-10H-phenothiazine]
- Reactivity (%) [1]: 134%

Compound: FC(F)(F)c1ccc2c(c1)N(CCCCN1CCC(N3CCCCC3)CC1)c1ccccc1S2 [Example 43, 10-(4-(1,4′-bipiperidin-1′-yl)butyl)-2-(trifluoromethyl)-10H-phenothiazine]
- Reactivity (%) [1]: 123%

Compound: CSc1ccc2c(c1)N(CCCCN1CCC(N3CCCC3)CC1)c1ccccc1S2 [Example 52, 2-(methylthio)-10-(4-(4-(pyrrolidin-1-yl)piperidin-1-yl)butyl)-10H-phenothiazine]
- Reactivity (%) [1]: 150%

Compound: CSc1ccc2c(c1)N(CCCN1CCC(N3CCCC3)CC1)c1ccccc1S2 [Example 55, 2-(methylthio)-10-(3-(4-(pyrrolidin-1-yl)piperidin-1-yl)propyl)-10H-phenothiazine]
- Reactivity (%) [1]: 114%

Compound: Clc1ccc2c(c1)N(CCCN1CCC(N3CCCCC3)CC1)c1ccccc1S2 [Example 69, 10-(3-(1,4′-bipiperidin-1′-yl)propyl)-2-chloro-10H-phenothiazine]
- Reactivity (%) [1]: 124%

Compound: CSc1ccc2c(c1)N(CCCCN1CCC(N3CCCCC3)CC1)c1ccccc1S2 [Example 72, 10-(4-(1,4′-bipiperidin-1′-yl)butyl)-2-(methylthio)-10H-phenothiazine]
- Reactivity (%) [1]: 131%

Compound: CC1CCN(CCCCN2c3ccccc3Sc3ccc(F)cc32)CC1 [Example 76, 2-fluoro-10-(4-(4-methylpiperidin-1-yl)butyl)-10H-phenothiazine]
- Reactivity (%) [1]: 110%

Compound: Fc1ccc2c(c1)N(CCCCN1CCC(N3CCCC3)CC1)c1ccccc1S2 [Example 77, 2-fluoro-10-(4-(4-(pyrrolidin-1-yl)piperidin-1-yl)butyl)-10H-phenothiazine]
- Reactivity (%) [1]: 149%

Compound: CN1CCN(CCCN2c3ccccc3Sc3ccc(C(F)(F)F)cc32)CC1 [TFP, trifluoperazine]
- Reactivity (%) [1]: 100%
- migration and proliferation of lung cancer [2]: suppresses the migration and proliferation of lung cancer
- invasion of cancer cells [3]: inhibits the invasion of cancer cells
